Measurements published in PMC3893826 (Journal of medicinal chemistry, 2010).
pEC50, pIC50: −log10 of the molar value.

Legend:
mTOR = mTOR (Mus musculus, UniProt Q9JLN9); assay type: cell-based
Human mTORC1 complex = Human mTORC1 complex (Homo sapiens, UniProt P42345); test: In vitro mTORC1 kinase assay; assay type: biochemical

Row | pEC50 (mTOR) | improved mTOR cellular potency compared to screening hit compound 1 (mTOR; relative to compound 1) | improvement in cellular potency, 7 versus 8 (mTOR; relative to compound 8) | Structure (SMILES) | pIC50 (Human mTORC1 complex) | pIC50 (mTOR)
1 | 8.52 | 1000 fold | 13 fold | CC(=O)N1CCN(c2ccc(-n3c(=O)ccc4cnc5ccc(-c6cnc7ccccc7c6)cc5c43)cc2C(F)(F)F)CC1 [Compound 7, 1-(4-(4-acetylpiperazin-1-yl)-3-(trifluoromethyl)phenyl)-9-(quinolin-3-yl)benzo[h][1,6]naphthyridin-2(1H)-one] | – | –
2 | – | – | – | COCCC(=O)N1CCN(c2ccc(Nc3ccnc4ccc(-c5cnc6ccccc6c5)cc34)cc2C(F)(F)F)CC1 [Compound 16] | 7.08 | 7.40
